{"source": "patent US4483794A", "about": "“Analogs of neurohypophysial hormones” (Ceskoslovenska akademie ved, priority 1983, dated 1984)", "key": {"[1]": {"biological_target": "T1, isolated rat uterus (Rattus norvegicus, UniProt P70536)", "T1 construct": "isolated rat uterus; from tissue; host or cells: isolated rat uterus", "T1 sequence (P70536 1-388)": "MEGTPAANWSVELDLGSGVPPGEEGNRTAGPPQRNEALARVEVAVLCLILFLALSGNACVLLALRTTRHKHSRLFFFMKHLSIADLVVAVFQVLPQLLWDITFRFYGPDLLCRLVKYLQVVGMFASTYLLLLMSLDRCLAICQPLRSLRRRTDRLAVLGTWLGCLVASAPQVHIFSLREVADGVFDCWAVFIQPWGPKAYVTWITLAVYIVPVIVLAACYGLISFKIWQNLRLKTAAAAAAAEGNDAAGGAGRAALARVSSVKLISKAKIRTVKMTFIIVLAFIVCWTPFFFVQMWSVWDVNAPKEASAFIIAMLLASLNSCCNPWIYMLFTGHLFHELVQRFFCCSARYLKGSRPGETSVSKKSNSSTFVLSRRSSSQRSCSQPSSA", "assay": "pA2 values as tested with an isolated rat uterus (oxytocin as agonist)", "type": "cell-based", "conditions": "negative decadic logarithm of an inhibitory constant", "text": "Each of the above-identified analogs evidenced strong inhibitory effects. Table I, set forth below, set forth numerical values of the biological activity of these analogs wherein pA2 represents the negative decadic logarithm of an inhibitory constant in accordance with the equation [formula] wherein B is the concentration of the inhibitor in moles per liter, A50 is the concentration of an agonistic compound (oxytocin) which results in 50% of the maximum effect, and A50B is the concentration of an agonistic compound yielding 50% of the maximum effect in the presence of an inhibitor of concentration B (Eggena P., Schwartz I. L., and Walter R.: J. Gen. Physiol. 52, 465 (1968).\npA2 values as tested with an isolated rat uterus"}, "[2]": {"test_system": "uterotonic and pressor activity of natural hormones", "assay": "inhibitory effects of the analogs toward natural hormones (general statements)", "conditions": "in words"}, "[3]": {"biological_target": "T2, biological effect of vasopressin (blood pressure) (Rattus norvegicus, UniProt P30560)", "T2 construct": "blood pressure in a despinalized rat; from tissue; host or cells: despinalized rat in vivo (vasculature)", "T2 sequence (P30560 whole entry)": "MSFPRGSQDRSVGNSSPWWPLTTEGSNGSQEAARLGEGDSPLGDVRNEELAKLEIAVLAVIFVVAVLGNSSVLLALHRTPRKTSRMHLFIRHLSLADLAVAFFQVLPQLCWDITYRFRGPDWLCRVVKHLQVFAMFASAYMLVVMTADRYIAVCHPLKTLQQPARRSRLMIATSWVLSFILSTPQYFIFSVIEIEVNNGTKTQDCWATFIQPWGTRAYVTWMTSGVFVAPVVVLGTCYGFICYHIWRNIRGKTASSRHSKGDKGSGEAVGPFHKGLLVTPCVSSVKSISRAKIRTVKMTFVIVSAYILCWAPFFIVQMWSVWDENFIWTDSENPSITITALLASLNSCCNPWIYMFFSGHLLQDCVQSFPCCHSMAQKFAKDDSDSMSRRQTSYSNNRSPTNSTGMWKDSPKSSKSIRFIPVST", "assay": "suppression of the biological effect of vasopressin, i.e. of blood pressure in a despinalized rat", "conditions": "in vivo, blood volume 6.7 ml/100g of rat weight assumed", "description": "^(a) the negative decadic logarithm of the analog concentration which\nleads to suppression of the biological effect of vasopressin (i.e. of\nblood pressure in a despinalized rat) to 50% of the original response; th\nblood volume of rat (6.7 ml/100g of rat weight) is assumed in the in vivo\ntest (Nestor J. J., Ferger M. F., du Vigneaud V.: J. Med. Chem. 18, 284"}, "[4]": {"test_system": "uterotonic activity of oxytocin", "assay": "inhibitory effect toward the uterotonic activity of oxytocin in the in vivo test with a uterus", "conditions": "compared with the equipotential dose of [2D-p-ethylphenylalanine] oxytocin", "text": "uterotonic activity of oxytocin in the in vivo test with a uterus as\ncompared with the equipotential dose of the compound ([\n2D-p-ethylphenylalanine] oxytocin)."}}, "note": "*1 amine or outer side, *2 acyl side, *3 side chain or, on linkers, in order; H or OH if unused. Where a SMILES comes first, the peptide text is derived from it. Bridges are numbered along the chain shown (N, C = ends). [ ]: non-standard residue; d: D form. dPhe(4-Et) = CCc1ccc(C[C@@H](N)C(=O)O)cc1; dPhe(4-Me) = Cc1ccc(C[C@@H](N)C(=O)O)cc1; hCys = N[C@@H](CCS)C(=O)O; X1 = O=C(CC[*:2])[*:1]", "data": [{"smiles": "CCc1ccc(C[C@H]2NC(=O)CCSSC[C@@H](C(=O)N3CCC[C@H]3C(=O)N[C@@H](CC(C)C)C(=O)NCC(N)=O)NC(=O)[C@H](CC(N)=O)NC(=O)[C@H](CCC(N)=O)NC(=O)[C@H]([C@@H](C)CC)NC2=O)cc1", "note": "[Ie, [2-D-p-Ethylphenylalanine]deamino-oxytocin] (HELM PEPTIDE1{[O=C(CCS[*:3])[*:2]].[CCc1ccc(C[C@@H](N[*:1])C(=O)[*:2])cc1].I.Q.N.C.P.L.G.[am]}$PEPTIDE1,PEPTIDE1,1:R3-6:R3$$$V2.0)", "values": [{"measurement": "pA2", "setting": "[1]", "result": 8.06}]}, {"smiles": "CCc1ccc(C[C@H]2NC(=O)[C@@H](N)C(C)(C)SSC[C@@H](C(=O)N3CCC[C@H]3C(=O)N[C@@H](CC(C)C)C(=O)NCC(N)=O)NC(=O)[C@H](CC(N)=O)NC(=O)[C@H](CCC(N)=O)NC(=O)[C@H]([C@@H](C)CC)NC2=O)cc1", "note": "[Ig, [1-Penicilamine, 2-D-p-ethylphenylalanine]oxytocin] (HELM PEPTIDE1{[Pen].[CCc1ccc(C[C@@H](N[*:1])C(=O)[*:2])cc1].I.Q.N.C.P.L.G.[am]}$PEPTIDE1,PEPTIDE1,1:R3-6:R3$$$V2.0)", "values": [{"measurement": "Kb", "setting": "[1]", "result": 8.13, "unit": "nM"}]}, {"smiles": "CC[C@H](C)[C@@H]1NC(=O)[C@@H](Cc2ccc(C)cc2)NC(=O)CCSCC[C@@H](C(=O)N2CCC[C@H]2C(=O)N[C@@H](CC(C)C)C(=O)NCC(N)=O)NC(=O)[C@H](CC(N)=O)NC(=O)[C@H](CCC(N)=O)NC1=O", "note": "[Ic, [2-D-p-Methylphenylalanine]deamino-6-carba-oxytocin] ([dPhe(4-Me)]IQN[hCys]PLG-NH2; linker N-5 via X1)", "values": [{"measurement": "Kb", "setting": "[1]", "result": 1.86, "unit": "nM"}]}, {"smiles": "CC[C@H](C)[C@@H]1NC(=O)[C@@H](Cc2ccc(C)cc2)NC(=O)CCSCC[C@@H](C(=O)N2CCC[C@H]2C(=O)N[C@@H](CC(C)C)C(=O)O)NC(=O)[C@H](CC(N)=O)NC(=O)[C@H](CCC(N)=O)NC1=O", "note": "[Ij, [2-D-p-methylphenylalanine, 9-desglycinamide]deamino-6-carbaoxytocin] ([dPhe(4-Me)]IQN[hCys]PL-OH; linker N-5 via X1)", "values": [{"measurement": "inhibitory effect", "setting": "[2]", "result": "retained"}, {"measurement": "Kb", "setting": "[1]", "result": 1.58, "unit": "nM"}]}, {"smiles": "CCc1ccc(C[C@H]2NC(=O)[C@@H](N)CSSC[C@@H](C(=O)N3CCC[C@H]3C(=O)N[C@@H](CCCCN)C(=O)NCC(N)=O)NC(=O)[C@H](CC(N)=O)NC(=O)[C@H](CCC(N)=O)NC(=O)[C@H](Cc3ccccc3)NC2=O)cc1", "note": "[Ih, [2-D-p-Ethylphenylalanine, 8-lysine]vasopressin] (HELM PEPTIDE1{C.[CCc1ccc(C[C@@H](N[*:1])C(=O)[*:2])cc1].F.Q.N.C.P.K.G.[am]}$PEPTIDE1,PEPTIDE1,1:R3-6:R3$$$V2.0)", "values": [{"measurement": "pA2 (negative decadic logarithm of the analog concentration which leads to suppression of the biological effect of vasopressin to 50% of the original response)", "setting": "[3]", "result": 7.05}]}, {"smiles": "CCc1ccc(C[C@H]2NC(=O)CCSCC[C@@H](C(=O)N3CCC[C@H]3C(=O)N[C@@H](CC(C)C)C(=O)NCC(N)=O)NC(=O)[C@H](CC(N)=O)NC(=O)[C@H](CCC(N)=O)NC(=O)[C@H]([C@@H](C)CC)NC2=O)cc1", "note": "[Id, [2-D-p-Ethylphenylalanine]deamino-6-carba-oxytocin] ([dPhe(4-Et)]IQN[hCys]PLG-NH2; linker N-5 via X1)", "values": [{"measurement": "Kb", "setting": "[1]", "result": 1.86, "unit": "nM"}]}, {"smiles": "CCc1ccc(C[C@H]2NC(=O)[C@@H](N)CSSC[C@@H](C(=O)N3CCC[C@H]3C(=O)N[C@@H](CC(C)C)C(=O)NCC(N)=O)NC(=O)[C@H](CC(N)=O)NC(=O)[C@H](CCC(N)=O)NC(=O)[C@H]([C@@H](C)CC)NC2=O)cc1", "note": "[If, [2-D-p-Ethylphenylalanine]oxytocin] (HELM PEPTIDE1{C.[CCc1ccc(C[C@@H](N[*:1])C(=O)[*:2])cc1].I.Q.N.C.P.L.G.[am]}$PEPTIDE1,PEPTIDE1,1:R3-6:R3$$$V2.0)", "values": [{"measurement": "Kb", "setting": "[1]", "result": 7.08, "unit": "nM"}]}, {"smiles": "CCc1ccc(C[C@H]2NC(=O)[C@@H](NC(=O)CNC(=O)CNC(=O)CN)CSSC[C@@H](C(=O)N3CCC[C@H]3C(=O)N[C@@H](CC(C)C)C(=O)NCC(N)=O)NC(=O)[C@H](CC(N)=O)NC(=O)[C@H](CCC(N)=O)NC(=O)[C@H]([C@@H](C)CC)NC2=O)cc1", "note": "[Ii, N^δ -Glycyl-glycyl-glycyl[2-D-p-ethylphenylalanine]oxytocin] (HELM PEPTIDE1{G.G.G.C.[CCc1ccc(C[C@@H](N[*:1])C(=O)[*:2])cc1].I.Q.N.C.P.L.G.[am]}$PEPTIDE1,PEPTIDE1,4:R3-9:R3$$$V2.0)", "values": [{"measurement": "inhibitory effect toward the uterotonic activity of oxytocin, duration", "setting": "[4]", "result": "prolonged inhibitory effect"}, {"measurement": "Kb", "setting": "[1]", "result": 724, "unit": "nM"}]}, {"smiles": "CC[C@H](C)[C@@H]1NC(=O)[C@@H](Cc2ccccc2)NC(=O)CCSCC[C@@H](C(=O)N2CCC[C@H]2C(=O)N[C@@H](CC(C)C)C(=O)NCC(N)=O)NC(=O)[C@H](CC(N)=O)NC(=O)[C@H](CCC(N)=O)NC1=O", "note": "[Ia, [2-D-Phenylalanine]deamino-6-carba-oxytocin] (HELM PEPTIDE1{[dF].I.Q.N.[O=C([C@H](CCS[*:3])N[*:1])[*:2]].P.L.G.[am]}|CHEM1{[O=C(CC[*:2])[*:1]]}$PEPTIDE1,CHEM1,1:R1-1:R1|PEPTIDE1,CHEM1,5:R3-1:R2$$$V2.0)", "values": [{"measurement": "Kb", "setting": "[1]", "result": 5.5, "unit": "nM"}]}, {"smiles": "CCOc1ccc(C[C@H]2NC(=O)CCSCC[C@@H](C(=O)N3CCC[C@H]3C(=O)N[C@@H](CC(C)C)C(=O)NCC(N)=O)NC(=O)[C@H](CC(N)=O)NC(=O)[C@H](CCC(N)=O)NC(=O)[C@H]([C@@H](C)CC)NC2=O)cc1", "note": "[Ib, [2-D-o-Ethyltyrosine]deamino-6-carba-oxytocin] ([dY](Et)IQN[hCys]PLG-NH2; linker N-5 via X1)", "values": [{"measurement": "Kb", "setting": "[1]", "result": 28.8, "unit": "nM"}]}]}
